Reference: patent US20080188506A1, “SPIROINDOLINONE DERIVATIVES” (priority 2007, published 2008)

Molecular target: interaction between p53 and MDM2 proteins (recombinant GST-tagged MDM2 / p53 peptide) (Homo sapiens, UniProt Q00987)
Assay: HTRF assay of inhibition of the p53-MDM2 interaction (GST-MDM2 / biotinylated p53 peptide)
Format: binding
Settings: 0.2% BSA, 37° C. 1 h
Procedure: The ability of the compounds to inhibit the interaction between p53 and MDM2 proteins was measured by an HTRF (homogeneous time-resolved fluorescence) assay in which recombinant GST-tagged MDM2 binds to a peptide that resembles the MDM2-interacting region of p53 (Lane et al.). Binding of GST-MDM2 protein and p53-peptide (biotinylated on its N-terminal end) is registered by the FRET (fluorescence resonance energy transfer) between Europium (Eu)-labeled anti-GST antibody and streptavidin-conjugated Allophycocyanin (APC).
Test is performed in black flat-bottom 384-well plates (Costar) in a total volume of […] containing:90 nM biotinylate peptide, 160 ng/ml GST-MDM2, 20 nM streptavidin-APC (PerkinElmerWallac), 2 nM Eu-labeled anti-GST-antibody (PerkinElmerWallac), 0.2% bovine serum albumin (BSA), 1 mM dithiothreitol (DTT) and 20 mM […] (TBS) buffer as follows: Add 10 uL of GST-MDM2 (640 ng/ml working solution) in reaction buffer to each well. Add 10 uL diluted compounds (1:5 dilution in reaction buffer) to each well, mix by shaking. Add 20 uL biotinylated p53 peptide (180 nM working solution) in reaction buffer to each well and mix on shaker. Incubate at 37° C. for 1 h. Add 20 uL streptavidin-APC and Eu-anti-GST antibody mixture (6 nM Eu-anti-GST and 60 nM streptavidin-APC working solution) in TBS buffer with 0.2% BSA, shake at room temperature for 30 minutes and read using a TRF-capable plate reader at 665 and 615 nm (Victor 5, Perkin ElmerWallac). If not specified, the reagents were purchased from Sigma Chemical Co.

interaction between p53 and MDM2 proteins (recombinant GST-tagged MDM2 / p53 peptide), sequence (Q00987 whole entry): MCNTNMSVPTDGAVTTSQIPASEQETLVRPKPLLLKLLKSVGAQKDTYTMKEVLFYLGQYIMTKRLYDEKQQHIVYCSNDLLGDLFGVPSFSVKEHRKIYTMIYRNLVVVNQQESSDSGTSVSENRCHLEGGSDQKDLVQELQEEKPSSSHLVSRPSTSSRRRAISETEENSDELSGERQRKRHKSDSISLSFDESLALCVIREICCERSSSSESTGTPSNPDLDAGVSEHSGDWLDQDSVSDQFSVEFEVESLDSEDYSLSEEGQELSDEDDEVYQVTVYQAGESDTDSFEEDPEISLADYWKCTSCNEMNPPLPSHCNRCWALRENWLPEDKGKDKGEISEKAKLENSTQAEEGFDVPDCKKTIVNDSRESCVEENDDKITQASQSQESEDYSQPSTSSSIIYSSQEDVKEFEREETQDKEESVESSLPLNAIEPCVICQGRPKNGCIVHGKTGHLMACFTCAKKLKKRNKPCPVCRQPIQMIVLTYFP

An IC50 of 5.21 µM was found for `COc1cccc([C@H]2NCC[C@@H](c3cccc(Cl)c3)[C@]23C(=O)Nc2cc(Cl)ccc23)c1` (racemic) [Example 8c, racemic (2′R, 3R, 4′S)-6-chloro-4′-(3-chlorophenyl)-2′-(3-methoxyphenyl) spiro[3H-indole-3,3′-piperidine]-2(1H)-one] in this work.

An IC50 of 1.03 µM was found for `C=C(CC(C)C)[C@H]1n2cnnc2C[C@@H](c2cccc(Cl)c2)[C@]12C(=O)Nc1cc(Cl)ccc12` (racemic) [Example 44h] in this work.

An IC50 of 2.31 µM was found for `COc1ccc(F)cc1[C@H]1NCC[C@@H](c2cccc(Cl)c2)[C@]12C(=O)Nc1cc(Cl)ccc12` (racemic) [Example 16c, racemic (2′R, 3R, 4′S)-6-chloro-4′-(3-chlorophenyl)-2′-(5-fluoro-2-methoxyphenyl) spiro[3H-indole-3,3′-piperidine]-2(1H)-one] in this work.

An IC50 of 6.95 µM was found for `O=C1Nc2cc(Cl)ccc2[C@]12[C@@H](c1ccccc1C(F)(F)F)NCC[C@H]2c1cccc(Cl)c1` (racemic) [Example 11c] in this work.
